According to paper PMC7953584, “An Experimental Study on [^125I]I-pHLIP (Var7) for SPECT/CT Imaging of an MDA-MB-231 Triple-Negative Breast Cancer Mouse Model by Targeting the Tumor Microenvironment” (Molecular Imaging, 2021):
Read-outs that look alike come from different tables or passages of the source. Residues, ends and D or L forms follow the SMILES beside them.

Assays:
MDA-MB-231 cells = test: Cell binding fraction (cellular uptake test); format: cell-based, human; settings: for binding fraction B/(B + F) × 100%: 3.7 kBq per well, γ counter, mean ± SD
Method: The human breast cancer cell line MDA-MB-231 was purchased from Shanghai Institute of Biochemistry and Cell Biology, Chinese Academy of Sciences and cultured in L-15 medium containing 10% fetal bovine serum at 37°C without CO2.
• Cell Plating. After the MDA-MB-231 cells were grown to greater than 90% confluence, the cell concentration was adjusted to approximately 1.0 × 10^5 cells/mL, 1 mL of the cell suspension was added to each well of a 12-well plate, and cells were cultured overnight at 37°C in a cell incubator. • Drug Administration. At the logarithmic growth phase, the cells were treated with drugs on the day after attachment; 3.7 kBq of [^125I]I-pHLIP (Var7) (20 μL volume) was added to each well. The pH inside the wells was adjusted to 7.4 and 6.0, yielding two groups of cells according to the pH value. • After 10 min, 40 min, 1 h, and 2 h of culture without CO2, the supernatant was aspirated into a tube and washed with PBS of the corresponding pH (pH 7.4 and 6.0) twice. The wash solution was also added to the supernatant tube. The cells were completely digested with trypsin, after which the cell suspension was aspirated into a tube and washed twice with PBS; the wash solution was also added to the tube. The radioactive counts of the cell tube (B) and supernatant tube (F) were measured by a γ counter. The cell binding fraction of the marker was calculated as B/(B + F) × 100%

[1] = Biodistribution in tumor-bearing nude mice; format: in vivo; settings: female, BALB/c nude, mouse, iv, 1480 kBq/200 uL, total radioactivity, ~1480 kBq/200 μL tail vein, mean ± SD, n = 3; for tissue uptake at 0.5 h: 0.5 h after injection; for tissue uptake at 1 h: 1 h after injection; for tissue uptake at 2 h: 2 h after injection; for tissue uptake at 4 h: 4 h after injection; for tissue uptake at 8 h: 8 h after injection
Method: A mouse model bearing a human breast cancer cell line, MDA-MB-231, was established. MDA-MB-231 cells were cultured using the conventional method. Cells were collected at the logarithmic growth phase and washed once with PBS. The cells were then diluted to prepare suspensions at a concentration of approximately 1 × 10^6 cells/mL, which were temporarily stored in an ice box. Female 4-week-old BALB/c nude mice (16-20 g) were selected. MDA-MB-231 cells were inoculated subcutaneously using a disposable insulin syringe inserted into the right lateral thighs of the nude mice. The number of inoculated cells in each nude mouse was approximately 0.1 mL. The nude mice were raised under specific pathogen-free (SPF) conditions.
Biodistribution experiments were conducted when the tumor diameter was 0.8-1.0 cm. Purified [^125I]I-pHLIP (Var7) was diluted with PBS, and a total of 15 tumor-bearing nude mice with no significant differences in tumor size were randomly divided into five cohorts. Nude mice in each cohort were injected with [^125I]I-pHLIP (Var7) at approximately 1480 kBq/200 μL through the tail vein. At 0.5, 1, 2, 4, and 8 h after injection, blood was collected from the orbital sinus. The mice were sacrificed, and tissues and organs, including the heart, liver, spleen, lung, kidney, pancreas, stomach, small intestine, bladder, thyroid, brain, bone, muscle, and tumors, were collected and weighed. The radioactive count was measured, and the results were converted to %ID/g.

[2] = bladder, read-out: distribution in bladder
[3] = blood, read-out: distribution in blood
[4] = bone, read-out: distribution in bone
[5] = brain, read-out: distribution in brain
[6] = heart, read-out: distribution in heart
[7] = kidney, read-out: distribution in kidney
[8] = liver, read-out: distribution in liver
[9] = lung, read-out: distribution in lung
[10] = muscle, read-out: distribution in muscle
[11] = pancreas, read-out: distribution in pancreas
[12] = small intestine, read-out: distribution in small intestine
[13] = spleen, read-out: distribution in spleen
[14] = stomach, read-out: distribution in stomach
[15] = thyroid, read-out: distribution in thyroid
[16] = tumor (MDA-MB-231), MDA-MB-231 tumor, read-out: distribution in tumor

CC(C)C[C@H](NC(=O)[C@H](CCC(=O)O)NC(=O)[C@H](CC(C)C)NC(=O)[C@H](CC(C)C)NC(=O)[C@H](CC(C)C)NC(=O)[C@@H](NC(=O)[C@H](CCC(=O)O)NC(=O)[C@@H](NC(=O)[C@@H]1CCCN1C(=O)[C@H](Cc1ccccc1)NC(=O)[C@H](CC(C)C)NC(=O)[C@H](Cc1c[nH]c2ccccc12)NC(=O)[C@H](CCC(=O)O)NC(=O)[C@H](CC(C)C)NC(=O)[C@H](Cc1ccc(O)c(I)c1)NC(=O)[C@H](CCCNC(=N)N)NC(=O)[C@H](C)NC(=O)[C@H](Cc1c[nH]c2ccccc12)NC(=O)[C@@H]1CCCN1C(=O)[C@H](CC(N)=O)NC(=O)[C@H](CCC(N)=O)NC(=O)[C@H](CCC(=O)O)NC(=O)[C@H](CCC(=O)O)NC(=O)[C@H](C)N)[C@@H](C)O)[C@@H](C)O)C(N)=O [[^125I]I-pHLIP (Var7)] (HELM PEPTIDE1{A.E.E.Q.N.P.W.A.R.[O=C([C@H](Cc1ccc(O)c(I)c1)N[*:1])[*:2]].L.E.W.L.F.P.T.E.T.L.L.L.E.L.[am]}$$$$V2.0)
binding fraction B/(B + F) × 100% (MDA-MB-231 cells; pH 6.0, 10 min): 1.9 ± 0.1% | binding fraction B/(B + F) × 100% (MDA-MB-231 cells; pH 6.0, 40 min): 3.5 ± 0.1% | binding to MDA-MB-231 cells (in words) (MDA-MB-231 cells; pH 7.4): essentially did not bind | binding fraction B/(B + F) × 100% (MDA-MB-231 cells; pH 7.4, 10 min): 0.9 ± 0.1% | binding fraction B/(B + F) × 100% (MDA-MB-231 cells; pH 7.4, 40 min): 0.8 ± 0.1% | binding fraction B/(B + F) × 100% (MDA-MB-231 cells; pH 7.4, 1 h): 0.8 ± 0.1% | binding fraction B/(B + F) × 100% (MDA-MB-231 cells; pH 7.4, 2 h): 0.6 ± 0.1% | tissue uptake at 0.5 h [1, 2]: 3.8 ± 1.1 %ID/g | tissue uptake at 1 h [1, 2]: 4.3 ± 1.1 %ID/g | tissue uptake at 2 h [1, 2]: 2.1 ± 0.9 %ID/g | tissue uptake at 4 h [1, 2]: 1 ± 0.6 %ID/g | tissue uptake at 8 h [1, 2]: 0.5 ± 0.2 %ID/g | tissue uptake at 0.5 h [1, 3]: 12 ± 1.5 %ID/g | tissue uptake at 1 h [1, 3]: 6.5 ± 1.5 %ID/g | tissue uptake at 2 h [1, 3]: 2.8 ± 0.6 %ID/g | tissue uptake at 4 h [1, 3]: 1.2 ± 0.5 %ID/g | tissue uptake at 8 h [1, 3]: 0.5 ± 0.1 %ID/g | tissue uptake at 0.5 h [1, 4]: 2.9 ± 0.3 %ID/g | tissue uptake at 1 h [1, 4]: 2.8 ± 0.1 %ID/g | tissue uptake at 2 h [1, 4]: 1.5 ± 0.5 %ID/g | tissue uptake at 4 h [1, 4]: 0.7 ± 0.2 %ID/g | tissue uptake at 8 h [1, 4]: 0.2 ± 0.1 %ID/g | tissue uptake at 0.5 h [1, 5]: 0.6 ± 0.1 %ID/g | tissue uptake at 1 h [1, 5]: 0.5 ± 0.1 %ID/g | tissue uptake at 2 h [1, 5]: 0.3 ± 0.1 %ID/g | tissue uptake at 4 h [1, 5]: 0.1 ± 0.1 %ID/g | tissue uptake at 8 h [1, 5]: 0.1 ± 0.1 %ID/g | tissue uptake at 0.5 h [1, 6]: 4.1 ± 0.5 %ID/g | tissue uptake at 1 h [1, 6]: 3.9 ± 0.7 %ID/g | tissue uptake at 2 h [1, 6]: 2 ± 0.4 %ID/g | tissue uptake at 4 h [1, 6]: 1.1 ± 1.1 %ID/g | tissue uptake at 8 h [1, 6]: 0.5 ± 0.3 %ID/g | tissue uptake at 0.5 h [1, 7]: 4.2 ± 0.6 %ID/g | tissue uptake at 1 h [1, 7]: 5.1 ± 1.1 %ID/g | tissue uptake at 2 h [1, 7]: 2.3 ± 0.8 %ID/g | tissue uptake at 4 h [1, 7]: 1.2 ± 0.4 %ID/g | tissue uptake at 8 h [1, 7]: 0.5 ± 0.2 %ID/g | tissue uptake at 0.5 h [1, 8]: 13.9 ± 2.7 %ID/g | tissue uptake at 1 h [1, 8]: 8 ± 1.9 %ID/g | tissue uptake at 2 h [1, 8]: 4 ± 0.6 %ID/g | tissue uptake at 4 h [1, 8]: 1.8 ± 0.2 %ID/g | tissue uptake at 8 h [1, 8]: 0.7 ± 0.2 %ID/g | tissue uptake at 0.5 h [1, 9]: 3.4 ± 1.2 %ID/g | tissue uptake at 1 h [1, 9]: 2.5 ± 1 %ID/g | tissue uptake at 2 h [1, 9]: 1.2 ± 0.5 %ID/g | tissue uptake at 4 h [1, 9]: 0.5 ± 0.3 %ID/g | tissue uptake at 8 h [1, 9]: 0.2 ± 0.1 %ID/g | tissue uptake at 0.5 h [1, 10]: 1.7 ± 0.6 %ID/g | tissue uptake at 1 h [1, 10]: 1.4 ± 0.8 %ID/g | tissue uptake at 2 h [1, 10]: 0.6 ± 0.2 %ID/g | tissue uptake at 4 h [1, 10]: 0.2 ± 0.1 %ID/g | tissue uptake at 8 h [1, 10]: 0.1 ± 0.1 %ID/g | tissue uptake at 0.5 h [1, 11]: 3.3 ± 0.8 %ID/g | tissue uptake at 1 h [1, 11]: 4.1 ± 1.2 %ID/g | tissue uptake at 2 h [1, 11]: 2.1 ± 0.6 %ID/g | tissue uptake at 4 h [1, 11]: 0.9 ± 0.3 %ID/g | tissue uptake at 8 h [1, 11]: 0.3 ± 0.1 %ID/g | tissue uptake at 0.5 h [1, 12]: 3.3 ± 1.5 %ID/g | tissue uptake at 1 h [1, 12]: 4.2 ± 0.6 %ID/g | tissue uptake at 2 h [1, 12]: 2.8 ± 1 %ID/g | tissue uptake at 4 h [1, 12]: 1.3 ± 0.5 %ID/g | tissue uptake at 8 h [1, 12]: 0.4 ± 0.1 %ID/g | tissue uptake at 0.5 h [1, 13]: 3 ± 1.1 %ID/g | tissue uptake at 1 h [1, 13]: 3 ± 0.6 %ID/g | tissue uptake at 2 h [1, 13]: 1.4 ± 0.4 %ID/g | tissue uptake at 4 h [1, 13]: 0.7 ± 0.2 %ID/g | tissue uptake at 8 h [1, 13]: 0.3 ± 0.1 %ID/g | tissue uptake at 0.5 h [1, 14]: 4.7 ± 1.2 %ID/g | tissue uptake at 1 h [1, 14]: 5.1 ± 1.2 %ID/g | tissue uptake at 2 h [1, 14]: 4.3 ± 1 %ID/g | tissue uptake at 4 h [1, 14]: 2.2 ± 0.8 %ID/g | tissue uptake at 8 h [1, 14]: 0.7 ± 0.2 %ID/g | tissue uptake at 0.5 h [1, 15]: 4.3 ± 1.7 %ID/g | tissue uptake at 1 h [1, 15]: 5.6 ± 1.4 %ID/g | tissue uptake at 2 h [1, 15]: 3.4 ± 1 %ID/g | tissue uptake at 4 h [1, 15]: 1.6 ± 0.8 %ID/g | tissue uptake at 8 h [1, 15]: 0.8 ± 0.4 %ID/g | tissue uptake at 0.5 h [1, 16]: 3.6 ± 0.5 %ID/g | tissue uptake at 1 h [1, 16]: 6.9 ± 0.4 %ID/g | tissue uptake at 2 h [1, 16]: 3.6 ± 0.7 %ID/g | tissue uptake at 4 h [1, 16]: 2 ± 0.6 %ID/g | tissue uptake at 8 h [1, 16]: 1 ± 0.4 %ID/g
